Key:
[1] = target: T1, human α2B -adrenergic receptor (NGC-α2B) (Homo sapiens, UniProt P18089)
T1 sequence (P18089 1-450): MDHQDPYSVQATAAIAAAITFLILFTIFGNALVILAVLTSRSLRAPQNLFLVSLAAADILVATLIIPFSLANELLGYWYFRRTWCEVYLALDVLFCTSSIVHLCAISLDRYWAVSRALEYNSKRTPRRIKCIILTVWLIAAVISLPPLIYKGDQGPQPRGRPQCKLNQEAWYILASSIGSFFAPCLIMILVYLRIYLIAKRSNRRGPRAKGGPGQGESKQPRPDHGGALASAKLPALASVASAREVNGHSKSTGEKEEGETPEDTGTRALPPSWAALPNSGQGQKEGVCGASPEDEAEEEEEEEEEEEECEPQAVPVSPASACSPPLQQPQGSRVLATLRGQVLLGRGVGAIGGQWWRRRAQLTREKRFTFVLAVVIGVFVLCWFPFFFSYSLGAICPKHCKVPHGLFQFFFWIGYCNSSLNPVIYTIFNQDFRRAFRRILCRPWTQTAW

[2] = target: T1, human α2B -adrenergic receptor (NGC-α2B); remark: listed apart in the source
[3] = target: T1, human α2B -adrenergic receptor (NGC-α2B); test: biochemical

inhibition [2] [%]	ability to compete with 3H-Rauwolscine for binding (in words) ([2]; pNGC-α2B transfected Cos-7 or Ltk- cell membranes)	Compound	nH (Hill Coefficient) [1]	Ki [3] [nM]
		O=C(c1ccc(F)cc1)C1CCN(CCn2c(=O)[nH]c3ccccc3c2=O)CC1 [Ketanserin]	1.21 ± 0.12	
15	inability	NCCc1c[nH]c2ccc(O)cc12 [Serotonin]		
		COc1cccc(OC)c1OCCNCC1COc2ccccc2O1 (centres unmarked) [WB-4101]	1.5	55
